Measurements from publication PMC11497070 (Chemical Communications (Cambridge, England), 2024).
Non-standard residues stand in square brackets, D forms with d. Residues, ends and D or L forms follow the SMILES beside them. *: point of attachment. Ala(7-MeO-coumarin-4-yl) = COc1ccc2c(C[C@H](N)C(=O)O)cc(=O)oc2c1; X1 = N[C@@H](Cc1ccc(O)cc1)C(=S)N1CCC[C@H]1C(=O)*

molecular target: T1, DPP-4 (Homo sapiens, UniProt P27487); test: DPP-4 proteolysis steady state fluorescence assay with μ-tagged probes; type: in vitro ADME; conditions: 5 μM peptide, 2.31 ng/μL DPP-4, DPBS pH 7.6, 27 °C, fluorescence λex 325 nm / λem 390 nm, average of three replicates
T1 construct: purchased Sigma Aldrich D3446
Method: Phan et al. Supporting Information
4. DPP-4 Proteolysis Assays (Steady State Assays)
A 19 μL solution of 5.3 μM peptide was incubated in the absence or presence of 1 μL of 46.2 ng/μL DPP-4 (Sigma Aldrich, D3446), to final concentrations of 5 μM peptide and 2.31 ng/μL […]
For the PP-based probes (APLEPμ & ASPLEPμ), […]
additional assays were conducted at higher DPP-4 concentration of 4.62 ng/μL to improve the cleavage rate and kinetics of the thioamide probes (Figure S17B). For the μ-tagged probes, the […]
nm on the Tecan M1000 plate reader. Three replicates were performed for each assay to ensure reproducibility. These primary data are shown. At the end of the plate-reader assay, the sample was diluted to a final volume of 170 μL for validation with HPLC. MALDI MS & HPLC analysis of peptide proteolysis by DPP-4 were also done to confirm the cleavage sites, indicated by the slashes (e.g. YP/SKPµ) as summarized in Figures S14-S17, and Tables S4-S7. A Phenomenex Luna® Omega 5 µm PS C18 100 Å analytical HPLC column was used to analyze all samples using the same gradient of 20-25 % B over 35 minutes (Solvent A: 0.1% TFA in Milli-Q water; Solvent B: 0.1% TFA in acetonitrile).

T1 sequence (P27487 whole entry): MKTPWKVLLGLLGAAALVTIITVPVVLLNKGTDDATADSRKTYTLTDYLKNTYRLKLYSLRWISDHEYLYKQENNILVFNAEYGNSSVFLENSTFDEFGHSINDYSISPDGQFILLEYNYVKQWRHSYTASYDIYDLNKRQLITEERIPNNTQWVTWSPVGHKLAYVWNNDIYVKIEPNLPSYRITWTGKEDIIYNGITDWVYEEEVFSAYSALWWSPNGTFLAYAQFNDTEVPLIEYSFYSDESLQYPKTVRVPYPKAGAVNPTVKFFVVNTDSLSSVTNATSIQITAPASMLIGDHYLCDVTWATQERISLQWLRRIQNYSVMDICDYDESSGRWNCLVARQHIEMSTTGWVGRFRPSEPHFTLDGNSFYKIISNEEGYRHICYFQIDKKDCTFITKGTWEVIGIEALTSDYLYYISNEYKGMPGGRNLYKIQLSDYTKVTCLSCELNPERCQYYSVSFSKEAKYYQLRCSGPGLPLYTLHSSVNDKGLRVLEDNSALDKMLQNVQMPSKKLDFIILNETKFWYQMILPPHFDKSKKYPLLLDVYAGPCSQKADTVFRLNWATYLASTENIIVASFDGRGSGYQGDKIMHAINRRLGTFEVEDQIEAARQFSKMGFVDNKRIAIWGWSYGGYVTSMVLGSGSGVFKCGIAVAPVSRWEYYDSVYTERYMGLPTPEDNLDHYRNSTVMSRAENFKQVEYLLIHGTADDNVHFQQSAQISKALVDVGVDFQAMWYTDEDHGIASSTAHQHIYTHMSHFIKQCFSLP

Row | Compound | t1/2 of cleavage by DPP-4 (μ-labeled probe)
1 | COc1ccc2c(C[C@H](NC(=O)[C@@H]3CCCN3C(=O)[C@H](CCCCN)NC(=O)[C@H](CO)NC(=O)[C@@H]3CCCN3C(=S)[C@@H](N)Cc3ccc(O)cc3)C(=O)O)cc(=O)oc2c1 [Y^sPSKPμ] (X1-SKP[Ala(7-MeO-coumarin-4-yl)]-OH) | 26 min

same assay, conditions: 5 μM peptide, 2.31 ng/μL DPP-4, DPBS pH 7.6, 27 °C, fluorescence λex 325 nm / λem 390 nm, three replicates

Row | Compound | cleaved fold slower than the native NPY1–5 probe Y^SPSKPμ
2 | CC[C@H](C)[C@H](NC(=O)[C@@H]1CCCN1C(=S)[C@@H](N)Cc1ccc(O)cc1)C(=O)N[C@@H](CCCCN)C(=O)N1CCC[C@H]1C(=O)N[C@@H](Cc1cc(=O)oc2cc(OC)ccc12)C(=O)O [Y^SPIKPμ] (X1-IKP[Ala(7-MeO-coumarin-4-yl)]-OH) | 3 fold
3 | COc1ccc2c(C[C@H](NC(=O)[C@@H]3CCCN3C(=O)[C@H](CCCCN)NC(=O)[C@H](CC(C)C)NC(=O)[C@@H]3CCCN3C(=S)[C@@H](N)Cc3ccc(O)cc3)C(=O)O)cc(=O)oc2c1 [Y^SPLKPμ] (X1-LKP[Ala(7-MeO-coumarin-4-yl)]-OH) | 2 fold

system: DPP-4 (dipeptidyl Peptidase IV human, recombinant, expressed in Sf9 cells); test: 2.31 ng/μL DPP-4 in DPBS buffer and pH 7.6 (PP-based probes also 4.62 ng/μL); conditions: 27°C, up to 400 min

Row | Compound | cleaved bond
4 | APLEPμ | P-L
5 | A^SPLEPμ | P-L
6 | YPIKPμ | P-I
7 | YPLKPμ | P-L3
8 | YPSKPμ | P-S

More lines, now with the values ahead:

Row | cleaved bond | Compound
9 | P-I | Y^SPIKPμ
10 | P-L3 | Y^SPLKPμ
11 | P-S | Y^SPSKPμ
